Laboratory results taken from patent publication US20240316023A1, “BENEDIN, PIPERIDINE, 2-BENZHYDRYL-3-HYDROXY-N-METHYL-, HYDROCHLORIDE AND DERIVATIVES THEREOF FOR USE IN TREATING KLEINE-LEVIN SYNDROME” (priority 2021, published 2024).

Biological target: T1, M1 (h) (antagonist radioligand) (Homo sapiens, UniProt P11229)
T1 construct: CEREP (Eurofins, France), contract panel
T1 sequence (P11229 1-460): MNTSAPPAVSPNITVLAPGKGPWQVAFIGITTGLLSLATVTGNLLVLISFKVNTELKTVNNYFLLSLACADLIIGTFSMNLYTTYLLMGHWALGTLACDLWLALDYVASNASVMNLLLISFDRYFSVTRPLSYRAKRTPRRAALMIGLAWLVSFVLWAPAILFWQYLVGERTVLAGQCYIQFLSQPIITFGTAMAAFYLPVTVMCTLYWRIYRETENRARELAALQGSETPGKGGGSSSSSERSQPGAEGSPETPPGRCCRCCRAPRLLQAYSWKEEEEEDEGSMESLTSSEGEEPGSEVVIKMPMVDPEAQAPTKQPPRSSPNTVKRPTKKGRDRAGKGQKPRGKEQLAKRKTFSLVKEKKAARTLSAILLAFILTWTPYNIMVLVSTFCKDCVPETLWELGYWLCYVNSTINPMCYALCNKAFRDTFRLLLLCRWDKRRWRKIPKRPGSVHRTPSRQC
Test: Radioligand binding panel (Eurofins/CEREP), M1
Conditions: 10^−5 M; % inhibition of control specific binding; read-out: % Inhibition at 10^−5M Benedin
Protocol: Benedin was tested at 10^−5 M, calculated as a % inhibition of control specific binding of a radioactively labeled ligand specific for each target.
This binding profile panel was broadly defined with roughly an equal number of selective, central and peripheral therapeutically relevant targets, including native animal tissues, radioligands and specific enzymes involved in cell cycle regulation in accordance with Eurofins Standard Operating Procedure.
For radioligand binding experiments, the half maximal inhibitory concentration (IC50) and the half maximal effective concentration (EC50) values were determined (via computer software) by nonlinear regression analysis of the competition curves using Hill equation curve fitting. The inhibition constants (Ki) were calculated using the Cheng-Prusoff equation (Ki=IC50/(1+(L/KD)), where L is the concentration of radioligand in the assay, and KD is the affinity of the radioligand for the receptor.^60
The results are expressed as a % control specific binding ([measured specific binding/control specific binding]×100) and as a % inhibition of control specific binding (100−[(measured specific binding/control specific binding)×100] obtained in the presence of the test compounds. […]

`CN1CCCC(O)C1C(c1ccccc1)c1ccccc1` (stereo not shown) [Benedin, 2-benzhydryl-3-hydroxy-N-methyl-piperidine] was tested, and the inhibition at 10 µM was 75%.
